Columns and labels:
[1] = Conversion of triptolide prodrug to triptolide in blood serum (TLC); assay type: in vitro ADME; conditions: 37° C.
Description: A solution of triptolide succinate in DMSO (25 mg/ml, 0.1 ml) was mixed with 0.5 ml of rat serum. The mixture was incubated at 37° C. Aliquots of the mixture were taken at 1, 3, 5, 15, 45 minutes and 18 hours and analyzed by thin layer chromatography (TLC). The TLC plates were developed in 1:5 CH2Cl2/Et2O. After development, the plates were treated with iodine vapor and examined under a UV lamp. Triptolide and triptolide succinate were used as reference compounds (Rf=0.60 and 0.45, respectively). […] After 15 minutes, the triptolide succinate spot had disappeared (Rf=0.45), and a new spot corresponding to triptolide had appeared (Rf=0.60).

[2] = test system: IL-2 production in Jurkat cells; conditions: cited from earlier work
[3] = in vivo; cited from earlier work
[4] = Phase I clinical trial, tolerability; assay type: in vivo, human; conditions: 0.675 μg/m^2 by i.v. infusion, weekly intervals
Description: In accordance with the invention, administration of a triptolide compound is expected to inhibit cytokine production, particularly TGF-β production, in a patient suffering from obliterative airway disease, renal fibrosis, diabetic nephropathy, or liver fibrosis, thereby reducing the symptoms of the disease. A range of doses is practical for this treatment. […] This dose calculates to about 20 μg/kg. Treatment in this clinical study is administered at weekly intervals.

IL-2 [5] = test: Suppression of cytokine production, PMA/ionomycin-induced Jurkat cells, ELISA; assay type: cell-based, human; conditions: 8 hr
Description: (§1) Triptolide suppresses in vitro production of proinflammatory cytokines such as IFN-γ, TNF-α, IL-1β and IL-6, as shown in Table 1. To obtain the data, Jurkat cells were stimulated for 8 hr by PMA and ionomycin. Human peripheral blood mononuclear cells (PBMC) from a single donor were incubated for 24 hr with PHA. At the end of the culture period, each supernatant was harvested, and the cytokine content was assayed by ELISA.

IFN-γ = test: Suppression of cytokine production, PHA-induced PBMC, ELISA; assay type: cell-based, human; conditions: 24 hr, single donor
Description: as §1

IL-1β = test: as above; assay type: cell-based, human; conditions: 24 hr, single donor
Description: as §1

IL-2 [6] = test: as above; assay type: cell-based, human; conditions: 24 hr, single donor
Description: as §1

IL-6 = test: as above; assay type: cell-based, human; conditions: 24 hr, single donor
Description: as §1

TNF-α = test: as above; assay type: cell-based, human; conditions: 24 hr, single donor
Description: as §1

IL-8 = conditions: bronchial epithelial cells; cited from earlier work
[7] = test system: cytokine genes in activated Jurkat cells; conditions: cited from earlier work
[8] = test system: human T cell lymphoma (Jurkat) cells; conditions: relative to native triptolide; cited from earlier work

triptolide 14-succinate [PG490-88]
Species detected by TLC after incubation in rat serum ([1]; after 3 minutes): only triptolide succinate was detected | Species detected by TLC after incubation in rat serum ([1]; after 15 minutes): disappeared | Suppression of IL-2 production ([2]; after incubation in plasma): in vitro activity in suppression of IL-2 production | Efficacy in animal models of immunosuppression [3]: efficacy in several animal models of immunosuppression

triptolide succinate sodium salt [PG490-88Na]
Tolerability in phase I clinical trial [4]: well tolerated with no drug-related toxicity

triptolide
IC50, suppression of IL-2 production (IL-2 [5]): 1.3 ng/mL | IC50, suppression of IFN-γ production (IFN-γ): 0.52 ng/mL | IC50, suppression of IL-1β production (IL-1β): 0.45 ng/mL | IC50, suppression of IL-2 production (IL-2 [6]): 0.38 ng/mL | IC50, suppression of IL-6 production (IL-6): 1.5 ng/mL | IC50, suppression of TNF-α production (TNF-α): 0.35 ng/mL | IL-8 mRNA and protein expression (IL-8): suppresses IL-8 expression | Expression of cytokine genes (IL-2, IL-3, IL-6, IL-8, IL-13, TNF-α, TGF-β, MIP-1α, MIP-1β, GM-CSF, RANTES) [7]: inhibits the expression of several cytokine genes

CC(C)[C@]12O[C@H]1[C@@H]1O[C@]13[C@]1(O[C@H]1C[C@H]1C4=C(CC[C@@]13C)C(=O)OC4)[C@H]2F [PG763, 14-deoxy-14α-fluoro triptolide]
IL-2 inhibition activity compared with native triptolide ([2]; relative to native triptolide): nearly equivalent | Cytotoxicity compared with native triptolide [8]: nearly equivalent

CC(C)[C@]12O[C@H]1[C@@H]1O[C@]13[C@]1(O[C@H]1C[C@H]1c4c(C(=O)c5ccccc5)oc(OC(=O)c5ccccc5)c4CC[C@@]13C)[C@@H]2O [PG796, 18-deoxo-19-dehydro-18-benzoyloxy-19-benzoyl triptolide]
IL-2 inhibition activity compared with triptolide 14-succinate ([2]; relative to the prodrug triptolide 14-succinate): higher level of activity
